According to US20240408062A1 (Purdue Research Foundation, priority 2022, published 2024):

Biological target: SARS-CoV-2 3CLpro (Severe acute respiratory syndrome coronavirus 2, UniProt P0DTD1)
Assay: Inhibition of SARS-CoV-2 3CLpro, continuous fluorescence assay with FRET-based substrate UIVT3
Type: biochemical
Conditions: FRET substrate UIVT3, 50-200 nM enzyme, pH 7.5, 25° C.
Procedure: Kinetic assays were performed in Costar 3694 EIA/RIA 96-well half-area, flat bottom, black polystyrene plates (Corning, Corning, NY) at 25° C. The increase in fluorescence intensity was measured at an emission wavelength of 528 nm (20 nm bandwidth) using an excitation wavelength of 485 (bandwidth 20 nm) using a CLARIOstar Plate Reader (BMG Labtech, Cary, NC). The initial rates of the reactions were determined from the slopes of the Relative Fluorescence Units (RFU) versus time (RFU min^−1). Inhibition data were collected and analyzed as described previously.

COc1cccc2[nH]c(C(=O)N[C@@H](CC(C)C)C(=O)N[C@@H](C[C@@H]3CCNC3=O)C(=O)C(=O)c3ccccc3)cc12 [Compound 1]
Activity of SARS-CoV-2 Mpro inhibitors: A++ (A++ < 1 μM)

CC(C)C[C@@H](C(=O)N[C@@H](C[C@@H]1CCNC1=O)C(=O)C(=O)c1ccccc1)N(C)C(=O)[C@@H](NC(=O)C(F)(F)F)C(C)(C)C [Compound 2]
Activity of SARS-CoV-2 Mpro inhibitors: A+ (A+ < 10 μM)

CN(C(=O)[C@@H](NC(=O)C(F)(F)F)C(C)(C)C)[C@H](CC1CCCC1)C(=O)NC(C[C@@H]1CCNC1=O)C(=O)C(=O)c1ccccc1 (some centres unmarked) [Compound 3]
Activity of SARS-CoV-2 Mpro inhibitors: A+ (A+ < 10 μM)

CC(C)C[C@H](CC(=O)[C@@H](NC(=O)C(F)(F)F)C(C)(C)C)C(=O)N[C@@H](C[C@@H]1CCNC1=O)C(=O)C(=O)c1ccccc1 [Compound 4]
Activity of SARS-CoV-2 Mpro inhibitors: A++ (A++ < 1 μM)

CC(C)C[C@@H](C(=O)N[C@@H](CC1CCCNC1=O)C(=O)C(=O)c1ccccc1)N(C)C(=O)[C@@H](NC(=O)C(F)(F)F)C(C)(C)C (some centres unmarked) [Compound 5]
Activity of SARS-CoV-2 Mpro inhibitors: A++ (A++ < 1 μM)
